From patent US12729368B2, “Methods and compositions for generating oligodendrocyte progenitor cells” (Trailhead Biosystems Inc., priority 2022, dated 2026) come the findings set out here.

The test system of assay [1] is human pluripotent stem cells. Briefly: HD-DoE #2: 13-factor model, differentiation toward anterior neuroectoderm, gene expression. The class given is cell-based. Conditions: model optimized for highest expression of FEZF2 at 4466; positive. The source says: To further enhance the conditions for oligodendrocyte differentiation from pluripotency, we performed an additional HD-DoE experiment. We obtained additional gene regulatory models that were used for preparation of a differentiation protocol. The basis of this was a 13-factor HD-DoE experiment with focus on initiation of differentiation of cells toward anterior neuroectoderm. In this model, we focused on expression of FEZF2 and OTX2.
As shown in the results summarized in FIG. 4, the model was optimized for highest expression of OTX2 at 12755.9. According to the model of high expression of OTX2, seven effectors had positive contribution including MK2206, PD0325901, CHIR99021, LDN193189, Go6983, PD173074 and BLU9931 with highest factor contribution of 22.2 for MK2206 and lowest factor contribution of 1.7 for PD173074 and BLU9931.
As shown in the results summarized in FIG. 5, the model was optimized for highest expression of FEZF2 at 4466. When the model was optimized for maximum expression level of FEZF2, three effectors including LDN193189 with factor contribution of 19.5, PD0325901 with factor contribution of 14.6 and MK2206 with factor contribution of 12.3 were common with previous condition and three new effectors including purmorphamine-500 nM, XAV939 and SC79 were introduced.
As shown in the results summarized in FIG. 6, to fine-tune the recipe and find the optimum combination of factors for high expression of both OTX2 and FEZF2, dynamic profiling analysis was done. […] Therefore, these two factors were added to the optimized culture recipe.

Assay [2] deals with stage 2 early-OPCs. Briefly: HD-DoE 8-factor model for stage 3 (version 1) on stage 2 early-OPCs. The class given is cell-based, human. How it is done:
(§1) To further differentiate the cells to an oligodendrocyte progenitor identity, additional HD-DoE experiments were performed on the cells that were cultured in stage 1 and stage 2 differentiation media. After 3 days, gene expression of cells in different combinatorial conditions were investigated. At this time, we focused on maximal expression of signature oligodendrocyte progenitor genes such as SOX10, OLIG1 and PDGFRa (Goldman and Kuypers (2015) Development 142:3983-95; Marques et al. (2016) Science 352:1326-1329). In one 8-factor model, individual and combinatorial effects of LDN193189, SUN 11602, Activin A, Biotin, TTNPB, Isoproterenol, linoleic acid and T3+T4 were tested.
The same model was also optimized for maximum expression of PDGFRa at 3510.9. Two factor specifically, TTNPB and Linoleic acid determined the expression level of PDGFRa with factor contribution of 71.6 and 22.1, respectively (FIG. 17). […] The model was also optimized for highest expression of SOX10 at 18.8. In this optimization, TTNPB was the only input that could elevate the expression level of the selected gene (FIG. 18).
Dynamic profile analysis was utilized to explore combination sets that can optimize expression of all three selected genes. […] Since Activin A is the main compound regulating expression level of OLIG1, we investigated the changes in the plots after addition of Activin A and observed that expression level of SOX10 is still in the target range and PDGFRa is expressed at a high level too (2520).

Assay [3] deals with stage 2 early-OPCs. Briefly: HD-DoE 12-factor model for stage 3 (version 1) on stage 2 early-OPCs. Format: cell-based, human. How it is done:
In another model, the effects of Activin A and TTNPB along with LDN193189, MHY1485, PDGF-AA, AICAR, FGF2, CHIR99021, DBZ, MK2206, Purmorphamine and T3+T4 were tested on gene profile of differentiating cells. When this model was optimized for maximum expression of SOX10 at 54.7, we observed Activin A again had positive regulatory impact on its expression, with factor contribution of 4.7. Other positive factors included MK2206, with the highest factor contribution at 16.2, MHY1485 at 11.49, CHIR99021 at 9.6, DBZ at 9.3, FGF2 at 3.6 and PDGF-AA, with factor contribution less than 3 (FIG. 20).
In this model, we also investigated the conditions of expression of another important OPC gene, CSPG4 (Goldman and Kuypers (2015) Development 142:3983-95: van Tilborg et al. (2018) Glia 66:221-238).
Dynamic profile analysis was used to better assess the impact of the factors on our selected genes and find the combination set that can optimize their expression (FIG. 22). According to this analysis, even though Activin A has a positive effect on SOX10, it decreases level of PDGFRa and OLIG1. […] Moreover, SOX10 is one of the main transcription factors of oligodendrocytes, along with OLIG2 and NKX2-2, that has shown the potential to commit the stem cells to oligodendrocytes in reprogramming efforts (Wang et al. (2014) Proc Natl Acad Sci USA 111:E2885-94; Garciá-León et al. (2018) Stem Cell Reports 10:655-672). […] One of the main challenges of differentiating cells to oligodendrocyte fate is controlling the mixed population and increasing the purity of the culture by committing more cells to oligodendrocyte over neuronal identity. Therefore, DBZ was excluded from the final recipe.
At this point, we investigated the expression profile of a larger group of genes defining oligodendrocyte progenitor population at a later stage, including ID2, CNP and BCAN (Perlman et al. (2020). Glia 68:1291-1303; Goldman and Kuypers (2015) Development 142:3983-95). In this model, these genes were expressed at 1900, 660 and 44, respectively.

Assay [4] has as its system human pluripotent stem cells. Briefly: HD-DoE #1: 8-factor model, 3-day treatment of pluripotent stem cells, gene expression. Conditions: for factor contribution: positive effect; for impact on NKX2-2 and OLIG2 expression levels: dynamic profile, 8-factor model. Format: cell-based. From the text: This example utilizes a method of High-Dimensional Design of Experiments (HD-DoE), as previously described in Bukys et al. (2020) Iscience 23:101346. The method employs computerized design geometries to simultaneously test multiple process inputs and offers mathematical modeling of a deep effector/response space. The method allows for finding combinatorial signaling inputs that control a complex process, such as during cell differentiation. It allows testing of multiple plausible critical process parameters, as such parameters impact output responses, such as gene expression. Because gene expression provides hallmark features of the phenotype of, for example, a human cell, the method can be applied to identify, and understand, which signaling pathways control cell fate. In the current example, the HD-DOE method was applied with the intent to find conditions for induction of oligodendrocyte progenitor-expressed genes, directly from the pluripotent stem cell state.
Specifically, to develop a novel method to generate oligodendrocytes, the impact of agonists and antagonists of multiple signaling pathways (herein called effectors) were tested on expression of two sets of 53 pre-selected genes after a 3-day treatment. These effectors are small molecules that are commonly used during stepwise differentiation of stem cells to specific fates. Choice of the effectors were based on current literature on neural induction in anterior ectoderm and differentiation of stem cells to oligodendrocytes.
To test the effectors, experiments with at least 8 factors were designed that can assess the response of cells to 48 or more different combinations of effectors in a range of concentrations. To analyze the models, we focused on expression of genes expressed during early development of anterior neuroectoderm and oligodendrocytes including NKX2-2, OLIG2, OLIG1, and PDGFRA. The impact of each effector on gene expression level is defined by a parameter called factor contribution that is calculated for each effector during the modeling.
This model tested 8 factors: PD0325901, MK2206, TTNPB, SC79, MHY1485, ZM336372, AGN193109 and AZD3147.

A further assay deals with pre-OPCs. Briefly: HD-DoE 12-factor model for stage 2 (version 1), 3 days on stage 1 pre-OPCs. Conditions: optimized for maximum expression of OLIG2 at 1841.6. Format: cell-based, human. The source says:
To engineer the recipe of stage 2 of differentiation, cells were first cultured in the stage 1 media described in Example 1 and then treated with combinations of 8 or 12 factors for 3 days and the gene expression of cells in each condition was modeled. At this point, due to short duration of culture (only six days in vitro), we decided to focus on maximal expression of OLIG2 and maintenance of high expression of NKX2-2, while initiating expression of SOX10, OLIG1 and PDGFRa, to guide the cells towards oligodendrocyte fate (Emery and Lu (2015). Cold Spring Harb Perspect Biol. 7:a020461; Perlman et al. (2020). Glia 68:1291-1303; Goldman and. Kuypers (2015) Development 142:3983-95).
In one 12-factor model, the individual and combinatorial impact of SUN 11602 an agonist for FGF signaling pathway, FGF2, Activin A an activator of one of the receptors of TGF-b superfamily, A 8301, an inhibitor of TGF-b pathway, CHIR99021 a WNT activator, AGN193109 a RA antagonist, MK2206 an AKT inhibitor, Purmorphamine an agonist of SHH signaling pathway, AZD3147 an antagonist of mTOR pathway, MHY1485 an agonist of mTOR pathway, SC79 an agonist of AKT pathway and G06983 an inhibitor of PKC pathway, were tested.
Dynamic profile analysis was used to assess the expression levels of other genes of interests, such as NKX2-2, OLIG1 and SOX10, while the model is maximized for OLIG2. Activin A and SUN 11602 were brought down to zero due to their very low factor contribution. We observed when the model is optimized, the expression level of NKX2-2 is at 3000, PDGFRa at 1000, OLIG1 at 80 and SOX10 at 15 (FIG. 12).

Assay [5] deals with cells cultured in stage 1 and stage 2 differentiation media. Briefly: HD-DoE 8-factor model for stage 3 (version 2). Format: cell-based, human. Here is the method: as §1, with “142:3983-95:” for “142:3983-95;”, “TTNPB (an RA agonist), CHIR99021, FGF-2, IGF-1, AGN193109, Purmorphamine, MHY1485 (a mTOR pathway agonist)” for “LDN193189, SUN 11602, Activin A, Biotin, TTNPB, Isoproterenol, linoleic acid”, “SC79 (an AKT pathway agonist)” for “T3+T4”, “tested to guide the cells toward a SOX10/PDGFRa positive population. […] CHIR99021 was also positive, with a factor contribution of 8.1 (FIG. 33).” for “tested.”
Other positive factors were IGF-1, with a factor contribution of 11.2, CHIR99021, with a factor contribution of 8.5 and TTNPB, with a factor contribution below 1 (FIG. 34).
To confirm the impact of TTNPB, FGF-2 and IGF-1 on a bigger scale, we investigated the expression profile of a larger group of genes defining late oligodendrocyte progenitor population, such as ID2, CSPG4, FYN, SOX8, PLP1 and BCAN (Perlman et al. (2020). Glia 68:1291-1303; Goldman and Kuypers (2015) Development 142:3983-95; van Tilborg et al. (2018) Glia 66:221-238) and neuronal genes such as NEUROD1, NEUROG1 and NEUROG2 in presence of IGF-1, FGF-2 or TTNPB.

The mark [6] stands for this setting: optimized for maximum expression of OLIG1 at 256, positive impact.
Setting [7] is: optimized for maximum expression of PDGFRa at 3510.9, positive.
[8] abbreviates: model optimized for maximum expression of NKX2-2.
[9] abbreviates: model optimized for maximum expression of PDGFRA.

The structures appear in SMILES notation. “And” between values parts separate entries of the source, which are not always exact repeats. Equal entries are not always repeated.

In the case of `c1ccc2c(-c3cnn4cc(-c5ccc(N6CCNCC6)cc5)cnc34)ccnc2c1` [LDN193189], the factor contribution turned out to be 19.5 in assay [1]; 10.8 in the assay on stage 2 early-OPCs [2] (setting [6]); 16.9 in the assay on stage 2 early-OPCs [3] (optimized for maximum expression of CSPG4 at 38.6, negative impact).

Regarding `CCCCC/C=C\C/C=C\CCCCCCCC(=O)O` [Linoleic acid], the factor contribution in the assay on stage 2 early-OPCs [2] (setting [7]) stood at 22.1.

As to `O=[N+]([O-])c1ccc(Nc2nc(N3CCOCC3)nc(N3CCOCC3)n2)cc1` [MHY1485], the factor contribution in assay [4] (setting [8]) was 13.8; in assay [4] (setting [9]), 13.4; with pre-OPCs (negative impact), 22.5; with stage 2 early-OPCs [3] (optimized for maximum expression of SOX10 at 54.7, positive) it was 11.49 and 11.5.

Take `O=C(NOC[C@H](O)CO)c1ccc(F)c(F)c1Nc1ccc(I)cc1F` [PD0325901]: the “impact on NKX2-2 and OLIG2 expression levels” value in assay [4] was “negatively impacting”. Further, the factor contribution in assay [4] (setting [9]) was 30.6 and 30.05; in assay [1], 14.6.

On to `CCOC(=O)C1=C(N)Oc2ccc(Cl)cc2C1C(C#N)C(=O)OCC` (centres unmarked) [SC79], for which the factor contribution is listed as 1.47 in assay [4] (setting [8]); 3.6 with pre-OPCs (positive regulatory effect); 30.2 in assay [5] (optimized for SOX10 at 41.04, negative impact).

Take `Cc1c(C)c(NCC(=O)N(C)C2CCN(Cc3ccc(C(N)=O)cc3)CC2)c(C)c(C)c1N` [SUN 11602]: the factor contribution in the assay with stage 2 early-OPCs [2] (setting [6]) was 3.7.

For `C/C(=C\c1ccc(C(=O)O)cc1)c1ccc2c(c1)C(C)(C)CCC2(C)C` [TTNPB], the factor contribution was 31.3 in assay [4] (setting [8]); 49.01 in assay [4] (setting [9]); 8 with stage 2 early-OPCs [2] (optimized for highest expression of SOX10 at 18.8, positive); 19.11 and 19.1 with stage 2 early-OPCs [2] (setting [6]); 71.6 in the assay on stage 2 early-OPCs [2] (setting [7]); 15.96 and 15.9 in the assay on stage 2 early-OPCs [3] (optimized for maximum expression of CSPG4 at 38.6, positive). The factor contribution was 17.98 in assay [5] (optimized for SOX10 at 41.04, positive) and “below 1” in assay [5] (optimized for maximum expression of PDGFRa at 853.4, positive). In addition, the “effect on late OPC genes and neuronal genes” value in assay [5] (factor plots vs concentration) is “negative effect of TTNPB on OPC genes and its positive effect on neuronal genes”.

For `Cc1ccc(NC(=O)c2cccc(N(C)C)c2)cc1NC(=O)c1ccc(O)cc1` [ZM336372], in assay [4], the “impact on NKX2-2 and OLIG2 expression levels” value is on record as “negatively impacting”. The factor contribution in assay [4] (setting [9]) was less than 1.
